# Test results as given in US11590116B2 (THERAVANCE BIOPHARMA R&D IP, LLC, priority 2019, dated 2023).
# Tests used:
# [1] = target: T1, recombinant human ALK5 (TGF-βR1) protein (Homo sapiens, UniProt P36897); experiment: Biochemical ALK5 (TGF-βR1) assay to measure pKi (LANCE Ultra ULight kinase assay); settings: apparent pKi from pIC50 by Cheng-Prusoff, read-out: ALK5 pKi (converted)
# T1 construct: purchased Life Technologies PR9075A
# T1 sequence (P36897 34-503): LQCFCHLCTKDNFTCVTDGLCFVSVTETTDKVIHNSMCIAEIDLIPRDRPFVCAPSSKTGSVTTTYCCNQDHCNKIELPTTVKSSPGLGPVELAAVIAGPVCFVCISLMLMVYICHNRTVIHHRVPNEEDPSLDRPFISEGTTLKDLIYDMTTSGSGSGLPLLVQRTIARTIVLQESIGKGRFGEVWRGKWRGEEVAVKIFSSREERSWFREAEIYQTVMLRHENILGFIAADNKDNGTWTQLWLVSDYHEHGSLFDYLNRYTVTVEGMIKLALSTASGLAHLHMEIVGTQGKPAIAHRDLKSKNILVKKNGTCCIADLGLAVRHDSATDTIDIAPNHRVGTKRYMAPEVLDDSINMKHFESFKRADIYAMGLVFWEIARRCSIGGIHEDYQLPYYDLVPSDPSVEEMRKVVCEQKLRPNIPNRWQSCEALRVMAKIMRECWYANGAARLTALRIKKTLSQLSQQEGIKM
# Summary of the method: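 Dose range 10 μM–25 pM; enzyme + compound 60 min RT; ATP added (5× stock 125 μM, 2 mM DTT); 60 min 37 °C; stop with EDTA + Eu anti-phospho-Topo IIα Thr1342 Ab; TR-FRET ex 320/340, em 665 nm. 4-param pIC50 → pKi (Cheng-Prusoff).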
# [2] = test system: TGF-β-stimulated SMAD3 phosphorylation in BEAS-2B cells; experiment: Cellular ALK5 potency assay, inhibition of TGF-β stimulated pSMAD3 formation in BEAS-2B cells; type: cell-based; settings: Homo sapiens; inhibition of TGF-β stimulated pSMAD3 formation, BEAS-2B cells; read-out: BEAS2B pIC50 (converted)
# Summary of the method: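 BEAS-2B human lung epithelial cells pre-treated 1 h at 37° C with compound in HBSS/25 mM HEPES/1% BSA, then stimulated 30 min with 10 ng/mL TGF-β (final). Lysates assayed for pSMAD3 by AlphaLISA; pIC50 from dose-dependent change versus stimulated untreated cells.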
Ki [1],SMILES,IC50 [2]
0.0398 to 0.316 nM,"Cc1cccc(-c2[nH]cnc2-c2ccc3ncc(N4CCC(C(=O)O[C@@H]5CCN(C)C5)CC4)cc3c2)n1 [Compound 702, [(3R)-1-methylpyrrolidin-3-yl] 1-[6-[5-(6-methyl-2-pyridyl)-1H-imidazol-4-yl]-3-quinolyl]piperidine-4-carboxylate]",25.1 to 158 nM
< 0.0316 nM,"Cc1cccc(-c2n[nH]cc2-c2ccc3ncc(Nc4ccc(N5CCNCC5)cn4)cc3c2)n1 [Compound 121, 6-[3-(6-methyl-2-pyridyl)-1H-pyrazol-4-yl]-N-(5-piperazin-1-yl-2-pyridyl)quinolin-3-amine]",25.1 to 158 nM
0.0398 to 0.316 nM,"Cc1cccc(-c2[nH]cnc2-c2ccc3ncc(-c4nc(C5=CCNC5)cs4)cc3c2)n1 [Compound 1043, 4-(2,5-dihydro-1H-pyrrol-3-yl)-2-[6-[5-(6-methyl-2-pyridyl)-1H-imidazol-4-yl]-3-quinolyl]thiazole]",< 20 nM
0.0398 to 0.316 nM,"Cc1cccc(-c2n[nH]cc2-c2ccc3ncc(C(=O)NCCCN4CCOCC4)cc3n2)n1 [Compound 109, 6-[3-(6-methyl-2-pyridyl)-1H-pyrazol-4-yl]-N-(3-morpholinopropyl)-1,5-naphthyridine-3-carboxamide]",25.1 to 158 nM
0.0398 to 0.316 nM,"Cc1cccc(-c2[nH]cnc2-c2ccc3ncc(C(=O)OCCCN4C[C@@H](C)N[C@@H](C)C4)cc3c2)n1 [Compound 898, 3-((3S,5R)-3,5-dimethylpiperazin-1-yl)propyl 6-(5-(6-methylpyridin-2-yl)-1H-imidazol-4-yl)quinoline-3-carboxylate]",25.1 to 158 nM
0.0398 to 0.316 nM,"Cc1cccc(-c2n[nH]cc2-c2ccc3ncc(-c4cn(CCN5CCOCC5)nn4)cc3n2)n1 [Compound 340, 4-[2-[4-[6-[3-(6-methyl-2-pyridyl)-1H-pyrazol-4-yl]-1,5-naphthyridin-3-yl]triazol-1-yl]ethyl]morpholine]",25.1 to 158 nM
0.398 to 3.16 nM,"Cc1cccc(-c2[nH]cnc2-c2ccc3ncc(-c4cnc(C(=O)OCC5CNC5)nc4)cc3c2)n1 [Compound 1052, azetidin-3-ylmethyl 5-[6-[5-(6-methyl-2-pyridyl)-1H-imidazol-4-yl]-3-quinolyl]pyrimidine-2-carboxylate]",200 to 1260 nM
0.0398 to 0.316 nM,"Cc1cccc(-c2n[nH]cc2-c2ccc3ncc(-c4nc5c([nH]4)CCNCC5)cc3n2)n1 [Compound 642, 2-[6-[3-(6-methyl-2-pyridyl)-1H-pyrazol-4-yl]-1,5-naphthyridin-3-yl]-1,4,5,6,7,8-hexahydroimidazo[4,5-d]azepine]",200 to 1260 nM
0.0398 to 0.316 nM,"Cc1cccc(-c2n[nH]cc2-c2ccc3ncc(NC(=O)CCN4CCN(C(C)C)CC4)cc3n2)n1 [Compound 530, 3-(4-isopropylpiperazin-1-yl)-N-[6-[3-(6-methyl-2-pyridyl)-1H-pyrazol-4-yl]-1,5-naphthyridin-3-yl]propanamide]",25.1 to 158 nM
0.0398 to 0.316 nM,"Cc1cccc(-c2[nH]cnc2-c2ccc3ncc(NCCN4CCC5(CC4)CNC5)cc3c2)n1 [Compound 404, N-[2-(2,7-diazaspiro[3.5]nonan-7-yl)ethyl]-6-[5-(6-methyl-2-pyridyl)-1H-imidazol-4-yl]quinolin-3-amine]",200 to 1260 nM

# Continued, compound first:
SMILES,Ki [1],IC50 [2]
"Cc1cccc(-c2n[nH]cc2-c2ccc3ncc(CNCCN4CCN(C(C)C)CC4)cc3n2)n1 [Compound 324, 2-(4-isopropylpiperazin-1-yl)-N-[[6-[3-(6-methyl-2-pyridyl)-1H-pyrazol-4-yl]-1,5-naphthyridin-3-yl]methyl]ethanamine]",0.398 to 3.16 nM,25.1 to 158 nM
"Cc1cccc(-c2[nH]cnc2-c2ccc3ncc(-c4ncc(C(=O)O[C@@H]5CCNC5)s4)cc3c2)n1 [Compound 1166, [(3R)-pyrrolidin-3-yl] 2-[6-[5-(6-methyl-2-pyridyl)-1H-imidazol-4-yl]-3-quinolyl]thiazole-5-carboxylate]",0.0398 to 0.316 nM,25.1 to 158 nM
"Cc1cccc(-c2n[nH]cc2-c2ccc3ncc(O)cc3n2)n1 [Compound 694, 6-[3-(6-methyl-2-pyridyl)-1H-pyrazol-4-yl]-1,5-naphthyridin-3-ol]",0.0398 to 0.316 nM,< 20 nM
"Cc1cccc(-c2[nH]cnc2-c2ccc3ncc(C4=CCNCC4)cc3c2)n1 [Compound 472, 6-[5-(6-methyl-2-pyridyl)-1H-imidazol-4-yl]-3-(1,2,3,6-tetrahydropyridin-4-yl)quinoline]",< 0.0316 nM,< 20 nM
"Cc1cccc(-c2nc[nH]c2-c2ccc3ncc(-c4cnn([C@@H]5CCCC[C@H]5N)c4)cc3c2)n1 [Compound 448, (1R,2R)-2-[4-[6-[4-(6-methyl-2-pyridyl)-1H-imidazol-5-yl]-3-quinolyl]pyrazol-1-yl]cyclohexanamine]",< 0.0316 nM,25.1 to 158 nM
"Cc1cccc(-c2[nH]ncc2-c2ccc3nccc(C(=O)O[C@H]4CC[C@@](C)(N)CC4)c3c2)n1 [Compound 1155, (4-amino-4-methyl-cyclohexyl) 6-[5-(6-methyl-2-pyridyl)-1H-pyrazol-4-yl]quinoline-4-carboxylate]",3.98 to 31.6 nM,200 to 1260 nM
"Cc1nc(-c2n[nH]cc2-c2ccc3ncc(NCCN4CCCC4(C)C)cc3n2)ccc1F [Compound 526, N-(2-(2,2-dimethylpyrrolidin-1-yl)ethyl)-6-(3-(5-fluoro-6-methylpyridin-2-yl)-1H-pyrazol-4-yl)-1,5-naphthyridin-3-amine]",< 0.0316 nM,25.1 to 158 nM
"Cc1cccc(-c2n[nH]cc2-c2ccc3ncc(NC4CCNCC4)cc3n2)n1 [Compound 113, 6-[3-(6-methyl-2-pyridyl)-1H-pyrazol-4-yl]-N-(4-piperidyl)-1,5-naphthyridin-3-amine]",0.0398 to 0.316 nM,200 to 1260 nM
"Cc1cccc(-c2n[nH]cc2-c2ccc3ncc(C(=O)NCCCN4CCN(C(C)C)CC4)cc3n2)n1 [Compound 55, N-[3-(4-isopropylpiperazin-1-yl)propyl]-6-[3-(6-methyl-2-pyridyl)-1H-pyrazol-4-yl]-1,5-naphthyridine-3-carboxamide]",0.0398 to 0.316 nM,200 to 1260 nM
"Cc1cccc(-c2[nH]cnc2-c2ccc3ncc(NCCN(C)C4CCNC4)cc3c2)n1 (racemic) [Compound 537, N′-methyl-N-[6-[5-(6-methyl-2-pyridyl)-1H-imidazol-4-yl]-3-quinolyl]-N′-[rac-(3R)-pyrrolidin-3-yl]ethane-1,2-diamine]",0.0398 to 0.316 nM,200 to 1260 nM
"CNCCn1cc(-c2cnc3ccc(-c4c[nH]nc4-c4cccc(C)n4)nc3c2)nn1 [Compound 554, N-methyl-2-[4-[6-[3-(6-methyl-2-pyridyl)-1H-pyrazol-4-yl]-1,5-naphthyridin-3-yl]triazol-1-yl]ethanamine]",< 0.0316 nM,25.1 to 158 nM
"Cc1cccc(-c2n[nH]cc2-c2ccc3ncc(N4CCCN(CC5CCCN5)CC4)cc3n2)n1 (centres unmarked) [Compound 274, 2-[3-(6-methyl-2-pyridyl)-1H-pyrazol-4-yl]-7-[4-(pyrrolidin-2-ylmethyl)-1,4-diazepan-1-yl]-1,5-naphthyridine]",0.0398 to 0.316 nM,200 to 1260 nM
"CNCCn1cc(-c2cnc3ccc(-c4c(-c5cccc(C)n5)nnn4Cc4ccccc4)cc3c2)cn1 [Compound 498, 2-[4-[6-[3-benzyl-5-(6-methyl-2-pyridyl)triazol-4-yl]-3-quinolyl]pyrazol-1-yl]-N-methyl-ethanamine]",0.0398 to 0.316 nM,25.1 to 158 nM
"Cc1cccc(-c2[nH]cnc2-c2ccc3ncc(C(=O)OCCN4CCC5(CC4)CNC5)cc3c2)n1 [Compound 892, 2-(2,7-diazaspiro[3.5]nonan-7-yl)ethyl 6-(5-(6-methylpyridin-2-yl)-1H-imidazol-4-yl)quinoline-3-carboxylate]",0.0398 to 0.316 nM,200 to 1260 nM
"Cc1cccc(-c2[nH]ncc2-c2ccc3ncc(C(=O)NC4CCNCC4)cc3n2)n1 [Compound 337, 6-[5-(6-methyl-2-pyridyl)-1H-pyrazol-4-yl]-N-(4-piperidyl)-1,5-naphthyridine-3-carboxamide]",0.0398 to 0.316 nM,200 to 1260 nM
"Cc1cccc(-c2[nH]cnc2-c2ccc3ncc(-c4ccc(C(=O)OCCN5CCC[C@H](N)C5)cn4)cc3c2)n1 [Compound 1214, 2-[(3S)-3-amino-1-piperidyl]ethyl 6-[6-[5-(6-methyl-2-pyridyl)-1H-imidazol-4-yl]-3-quinolyl]pyridine-3-carboxylate]",0.0398 to 0.316 nM,25.1 to 158 nM
"CC(=O)Oc1cnc2ccc(-c3cn[nH]c3-c3cccc(C)n3)cc2c1 [Compound 731, [6-[5-(6-methyl-2-pyridyl)-1H-pyrazol-4-yl]-3-quinolyl]acetate]",0.0398 to 0.316 nM,< 20 nM
"CN[C@H]1CC[C@H](OC(=O)c2cnc3ccc(-c4nc[nH]c4-c4cccc(C)n4)cc3c2)CC1 [Compound 1129, [4-(methylamino)cyclohexyl] 6-[5-(6-methyl-2-pyridyl)-1H-imidazol-4-yl]quinoline-3-carboxylate]",0.0398 to 0.316 nM,25.1 to 158 nM
